Data from patent US20110160121A1, “UNACYLATED GHRELIN AND ANALOGS AS THERAPEUTIC AGENTS FOR VASCULAR REMODELING IN DIABETIC PATIENTS AND TREATMENT OF CARDIOVASCULAR DISEASE” (ALIZE PHARMA SAS, priority 2008, published 2011).
Where no end group is shown, it is not given here.

Tests used:
[1] = test system: human arteries; settings: Ref. 35; cited from earlier work
[2] = test system: CAC; test: CAC cell-cycle progression (percentage of cells in S phase, FACS); format: cell-based, human; settings: cultured CAC; effect still evident after 7 days of culture; FIG. 1A
Method: First, cell-cycle progression in response to UAG and AG was evaluated. […] To investigate whether this effect relies on inhibition of baseline ROS production, DCF-DA assay was performed. […] H2O2 was used as positive control. AGE-mediated damage signals mainly rely on ROS production (Ref. 29). […] Isolation and Culture of CAC from Peripheral Blood Mononuclear Cells—Peripheral-blood mononuclear cells (PB-MNC) isolated by Fycoll Histopaque 1077 (Sigma) were resuspended in 20% FBS 199 Medium and plated on fibronectin-coated dishes (Biocoat, Becton Dickinson Labware) as described by Hill et al. (Ref. 19). Human UAG studies were performed on CAC recovered from normal donors and diabetic patients. The purity of sorted cells was assessed by FACS analysis (Ref. 20). For experiments, the isolated CAC were cultured under 5% CO2 at 37° C. for 4 days on 20 μg/ml fibronectin-coated dishes in EGM-2 medium containing 10% FBS, hydrocortisone, human Fibroblast Growth Factor, Vascular Endothelial Growth Factor, Insulin Growth Factor 1, ascorbic acid, human Epidermal Growth Factor, gentamicin and amphotericin-B (Cambrex, Walkersville, Md., USA) alone or in combination with 1 μM UAG and 1.2 mg/ml AGE. […] Cell surface molecules were evaluated by flow cytometry as previously described (Ref. 24). Frequency of marker-positive cells is expressed as mean±standard deviation (SD).

[3] = test system: CAC membranes; test: Competition binding with [125I-Tyr4]-UAG on CAC membranes; set-up: species or system human; settings: 100 nM competitor, 0.25 nM radioligand; FIG. 5A
Source text: The specific binding of [^125I-Tyr^4]-UAG (calculated as difference between binding in the absence, control, and in the presence of UAG) represented about 75% of the control value (P<0.001) and was detected either on fresh (0.25 and 0.26 fmol) or frozen-thawed (0.20 and 0.33 fmol) CAC membranes from two different cell preparations.

[4] = test system: CAC; test: Expansion and arterial commitment of CAC recovered from UAG-challenged mice, cultured with IL-3; format: in vivo, mouse
Method: After treatment, cells were recovered, assayed by FACS analysis, counted and cultured. […] Black lines refer to preimmune IgG used as negative control and grey lines refer to surface marker expression. Similar results were obtained when CAC from untreated diabetic mice as well as untreated or treated wild-type mice were analyzed (data not shown).
RNA isolation and quantitative real-time PCR—CAC from diabetic patients, healthy subjects and mice treated with UAG or saline were cultured in EGM-2 medium. Human arterial and venous cells were used as a positive controls. mRNA quantification was performed by Q-RT-PCR, as previously described (Ref. 24). The relative expression of Ephrin B2, Notch1, Notch4 and EphB4 were calculated by using comparative threshold cycle methods. The human and murine primer sequences used were described (Refs. 25, 26).
Flow Cytometry—To analyze CAC cell-cycle progression, cells recovered from diabetic, healthy subjects, NOD/SCID, ob/ob and wt mice, were cultured in EBM-2 supplemented with IL-3 (10 ng/ml), FACS analysis was performed as previously described (Ref. 20). Cell surface molecules were evaluated by flow cytometry as previously described (Ref. 24). Frequency of marker-positive cells is expressed as mean±standard deviation (SD). […]

[5] = test system: CAC; test: Detection of ROS in CAC (DCF-DA assay, FACS); format: cell-based, human
Method: First, cell-cycle progression in response to UAG and AG was evaluated. […] To investigate whether this effect relies on inhibition of baseline ROS production, DCF-DA assay was performed. […] H2O2 was used as positive control. AGE-mediated damage signals mainly rely on ROS production (Ref. 29). […] Detection of ROS—DCF-DA (0.5 μM final concentration) was added to CAC in the indicated culture conditions. At the indicated times, the cells were subjected to FACS analysis and processed as previously described (Ref. 22). H2O2 was used as positive control.

- inhibition of binding of [125I-Tyr4]-UAG to CAC membranes [3]: inhibited
Substance: 1-NH2Gly-Ser-Ser-Phe-Leu-Ser-Pro-Glu-His-Gln-Arg-Val-Gln-Gln-Arg-Lys-Glu-Ser-Lys-Lys-Pro-Pro-Ala-Lys-Leu-Gln-Pro-Arg-28 (H-GSSFLSPEHQRVQQRKESKKPPAKLQPR; ends and bridges not checked; listed as Homo sapiens) [UAG]
- vasodilator action [1]: have vasodilator actions in human arteries
- percentage of cells in S phase [2]: significant increase in the percentage of cells in S phase
- arterial commitment of recovered CAC ([4]; CAC from UAG-challenged mice cultured in the presence of IL-3, FIG. 4D): acquire arterial commitment
- expansion of recovered CAC ([4]; CAC from UAG-challenged mice, FIG. 4C): could be expanded
- level of ROS production in AGE-cultured cells ([5]; AGE-cultured CAC, FIG. 1C, 1F): the level of ROS production in AGE-cultured cells was reduced
- intracellular ROS production in diabetic-recovered cells ([5]; CAC isolated from type 2 diabetic patients, treated in vitro, FIG. 1D): reduced intracellular ROS production
- baseline level of ROS production ([5]; CAC, compared to untreated cells, FIG. 1B, 1E): drastically reduces the baseline level of ROS production
